From US6630125B2, “18F-labeled choline analogs” (priority 2000, dated 2003)
Entries after “also recorded” stand apart in the source; their conditions may differ. Like-named read-outs stand apart in the source and are kept apart here.

Assays:
[1] = tested on: patients with prostate cancer; test: PET imaging in patients with prostate cancer; settings: human, in vivo
Method: The distribution of FCH in PET imaging studies was evaluated in 14 patients with prostate cancer, 14 patients with breast cancer, and 5 patients with brain tumors. Imaging was performed using the Advance PET scanner (GE Medical Systems, Milwaukee, Wis.). […] In prostate cancer patients, a transmission scan of the pelvic region was obtained before administration of radiotracer. FCH (2.5-5 mCi) was administered intravenously, and dynamic imaging of the pelvis region was commenced for 20-30 min. During image reconstruction, the emission data in the pelvic region were corrected for photon attenuation using the transmission scan. Immediately following the dynamic scan, a whole-body emission scan was performed without transmission scanning for attenuation correction. The images were reconstructed using an Ordered Subset Expectation Maximum (OS-EM) algorithm. Regions-of-interest were drawn manually on the attenuation corrected images for evaluation of FCH kinetics in tissues. Standardized uptake values of FCH uptake in tissues were calculated using the attenuation-corrected images according to the equation: [formula]
Patient 2: Transmission and FCH emission scans of a person with hormone naive clinical stage T2 prostate cancer were commenced over the lower pelvis.
The same patient was scanned with FDG within the same week (FIG. 8).
Patient 4: A person with a history of clinical stage T3b prostate cancer treated by radical retropubic prostatectomy was diagnosed with metastatic disease by bone scan. FCH-PET imaging was performed before and after initiating androgen deprivation therapy. In the first study, whole-body emission scanning was started 5 min after injection, beginning at the pelvic region in order to image the pelvis and prostatic bed before arrival of urinary radioactivity. […] The patient was rescanned 2 weeks after initiating androgen deprivation therapy.
Patient 5: A person was initially diagnosed five years prior with locally advanced clinical stage T3NOMO prostate cancer and underwent radical prostatectomy followed by external beam radiation to the prostate bed. […] The patient was then treated with Zolex and Casodex.

[2] = tested on: mice with PC-3 xenografts
Method: Body weight and tumor volume were measured weekly and tumor volume (mm3) was calculated using the formula S2×L/2, where S and L represent the small and large diameters of the tumor, respectively.
A prescribed duration of time was allowed before procurement of heart, liver, lung, blood, kidney, bone (femur), brain (whole), prostate gland, tumor, bladder, and skeletal muscle. The tissues were weighed, and counted for ^18F in a gamma counter, then dissolved in Solvable (Dupont, Boston Mass.) and counted for ^14C in a liquid scintillation counter. For the bladder, the percentage of the injected dose in the urine was determined. For all other tissues, radiotracer uptake was calculated as: […]

yeast choline kinase = target: T1, yeast choline kinase (Saccharomyces cerevisiae, UniProt P20485); test: In vitro phosphorylation by yeast choline kinase; type: biochemical
T1 sequence (P20485 1-582): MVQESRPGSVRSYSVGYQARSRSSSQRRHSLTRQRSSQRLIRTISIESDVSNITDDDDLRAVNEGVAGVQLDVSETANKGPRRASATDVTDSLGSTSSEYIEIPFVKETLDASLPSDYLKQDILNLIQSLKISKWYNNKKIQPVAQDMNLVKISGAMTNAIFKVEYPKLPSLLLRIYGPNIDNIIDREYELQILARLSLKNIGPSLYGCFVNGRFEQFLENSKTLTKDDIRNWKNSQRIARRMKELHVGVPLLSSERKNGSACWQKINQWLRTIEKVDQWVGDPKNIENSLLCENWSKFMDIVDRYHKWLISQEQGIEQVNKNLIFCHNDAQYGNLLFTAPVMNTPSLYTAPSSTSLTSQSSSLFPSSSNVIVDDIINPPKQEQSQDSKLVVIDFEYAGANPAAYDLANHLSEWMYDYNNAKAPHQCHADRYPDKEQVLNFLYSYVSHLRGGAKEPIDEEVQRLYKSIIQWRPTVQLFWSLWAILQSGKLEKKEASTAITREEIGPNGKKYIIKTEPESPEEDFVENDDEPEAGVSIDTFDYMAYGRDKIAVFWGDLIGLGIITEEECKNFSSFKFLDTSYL
Method: The test tube was gently agitated throughout the incubation period. The reaction was stopped by placing the tube in a boiling water bath for 2 min. To serve as controls, some samples were placed directly in the boiling water bath after addition of all substrates. […] The percentage of radioactivity converted to the phosphorylated form was calculated.

[3] = Stability of the FCH preparation (HPLC); type: physicochemical; settings: room temperature for 7 hr, cation-exchange HPLC
Method: (§1) The stability of FCH in its prepared form was evaluated by monitoring the radiochemical purity using the HPLC system described above. […] After an incubation of 2 hr at 37 C, the plasma was separated, the plasma proteins precipitated by adding two volumes of methanol, and the supernatant was analyzed for intact FCH by cation-exchange HPLC. […] FCH was also found to be stable in a blood samples taken from healthy human subjects (n=5).

[4] = Stability of FCH in human whole blood; type: in vitro ADME; settings: 2 hr, 37 C, blood of healthy human subjects (n=5)
Method: as §1

SMILES: C[N+](C)(CF)CCO.[Cl-] [FCH, dimethylfluoromethyl-2-hydroxyethylammonium chloride]
- decrease of SUV in ischial metastasis [1]: 68%
- decrease of SUV in primary tumor [1]: 61%
- decrease of SUVs in the tumors [1]: 35-40%
- SUV in ischial metastasis ([1]; male): 2.4
- SUV in primary tumor ([1]; male): 3.0
- SUV index in osseous lesions ([1]; male): 8.0
- SUV values in osseous lesions of the pelvis region ([1]; male): 3.8-8.0
- injected dose of radioactivity in urine ([1]; male): 1.3%
- radioactivity concentration in the brain relative to prostate gland or metastasis ([1]; male): < 2%
- time of arrival of radioactivity in the urinary bladder / urine ([1]; male): about 8 min
- time to plateau of radioactivity concentration in prostate and metastasis ([1]; male): ≤ 5 min
- time to plateau of radioactivity concentration in the prostate bed ([1]; male): ≤ 3 min
- tracer uptake in osseous lesions, FCH relative to FDG ([1]; male): 2 fold
- arterial concentration relative to the peak level ([1]; male, 2 min): < 5%
- SUV of osseous metastasis (left ischium) ([1]; male, 5 min): 7.7
- SUV of primary tumor ([1]; male, 5 min): 7.7
- Uptake in Blood ([2]; 10 min): 2.7 ± 0.9 % dose kg/100 g
- Uptake in Brain ([2]; 10 min): 0.8 ± 0.3 % dose kg/100 g
- Uptake in Heart ([2]; 10 min): 15.5 ± 5.9 % dose kg/100 g
- Uptake in Kidney ([2]; 10 min): 127.7 ± 27.6 % dose kg/100 g
- Uptake in Liver ([2]; 10 min): 50.7 ± 15.3 % dose kg/100 g
- Uptake in Lung ([2]; 10 min): 18.0 ± 5.3 % dose kg/100 g
- Uptake in Prostate ([2]; 10 min): 6.6 ± 2.2 % dose kg/100 g
- Uptake in Skeletal Muscle ([2]; 10 min): 4.4 ± 1.8 % dose kg/100 g
- Uptake in Tumor ([2]; 10 min): 3.6 ± 0.6 % dose kg/100 g
- Uptake in Blood ([2]; 30 min): 3.3 ± 0.2 % dose kg/100 g
- Uptake in Brain ([2]; 30 min): 1.0 ± 0.2 % dose kg/100 g
- Uptake in Heart ([2]; 30 min): 13.2 ± 2.6 % dose kg/100 g
- Uptake in Kidney ([2]; 30 min): 116 ± 17 % dose kg/100 g
- Uptake in Liver ([2]; 30 min): 56.7 ± 13.2 % dose kg/100 g
- Uptake in Lung ([2]; 30 min): 17.1 ± 1.4 % dose kg/100 g
- Uptake in Prostate ([2]; 30 min): 7.1 ± 2.1 % dose kg/100 g
- Uptake in Skeletal Muscle ([2]; 30 min): 1.1 ± 1.0 % dose kg/100 g
- Uptake in Tumor ([2]; 30 min): 7.1 ± 2.1 % dose kg/100 g
- Uptake in Blood ([2]; 60 min): 1.5 ± 0.6 % dose kg/100 g
- Uptake in Brain ([2]; 60 min): 0.8 ± 0.1 % dose kg/100 g
- Uptake in Heart ([2]; 60 min): 12.7 ± 3.2 % dose kg/100 g
- Uptake in Kidney ([2]; 60 min): 94.3 ± 31.0 % dose kg/100 g
- Uptake in Liver ([2]; 60 min): 58.4 ± 40.6 % dose kg/100 g
- Uptake in Lung ([2]; 60 min): 21 ± 4.4 % dose kg/100 g
- Uptake in Prostate ([2]; 60 min): 7.1 ± 3.0 % dose kg/100 g
- Uptake in Skeletal Muscle ([2]; 60 min): 4.1 ± 0.6 % dose kg/100 g
- Uptake in Tumor ([2]; 60 min): 7.9 ± 5.0 % dose kg/100 g
- tumor uptake ([2]; PC-3 xenograft): ~0.07 % dose kg/g
- injected dose in the urinary bladder ([2]; at 30 min): 10%
- tumor:blood ratio ([2]; at 60 min): 5.3±2.4
- liver uptake compared with CH ([2]; mouse, in vivo): lower
- uptake by normal brain compared with other tracers ([2]; mouse, in vivo): one tenth that for FDG; also recorded: one half that of CH
- phosphorylation rate compared with CH (yeast choline kinase; 1 μM choline): equivalent to CH
- In vitro phosphorylation (yeast choline kinase; 1 μM choline, 25 mU/ml yeast choline kinase, 23° C., 10 min, n = 5): 62.0 ± 8.8%
- IC50 (yeast choline kinase; choline 1-10,000 μM, 25 mU/ml choline kinase, 10 min, 23 C, read-out: apparent IC50 for inhibition of phosphorylation of radiotracer by choline): ~400 µM
- radiochemical purity after storage of the preparation [3]: > 99%
- stability in whole blood (HPLC) [4]: completely intact
